Experimental data reported in paper PMC9249808, “A novel lipidic peptide with potential to promote balanced effector-regulatory T cell responses” (Scientific Reports, 2022).
Blank lines part the entries; values can stand above or below the molecule they belong to. Non-standard residues stand in square brackets, D forms with d. Residues, ends and D or L forms follow the SMILES beside them. Gly(decyl) = CCCCCCCCCC[C@H](N)C(=O)O

Tests used:
CD3+ T cell cultures = test: Cytokine ELISA on supernatants of isolated CD3+ T cell cultures; type: cell-based, human
Experimental: CD3^+ T cells were isolated from PBMCs by negative selection using immune-magnetic separation (Stem cell kits), resuspended in complete medium as used for PBMCs at 0.5 × 10^6/mL and plated at a density of 5 × 10^4 per well (100 µL) in 96-well, flat bottom culture plates. CD4^+ and CD8^+ T cell populations were isolated by immunomagnetic separation and resuspended in RPMI-10 at 0.5 × 10^6/mL with a plating density of 0.5 × 10^5 per well. Either the lipidic peptide, IK14004, or IK14000 ([…]) was added to wells at a final volume of 50 µL per well, together with anti-CD3 anti-CD28 coated Dynabeads (ThermoFisher) at a 4:1 cell:bead ratio (1.25 × 10^4/well, 50 µL volume) and cells cultured for 72 h at 37 °C and 5% CO2.
Supernatants were obtained from PBMC and isolated CD3+ T cells cultures to assess production of IL-2, IL-12p70, IL-10 and IFN-γ (ThermoFisher kits) and IL-12p40 (Biolegend). […] ELISA plates were read at 450 nm using an Infinite F50 (Tecan) absorbance reader and Magellan™ reader control and data analysis software. Flow cytometry data was exported as FCS files from Attune™ NxT software and analysed using FlowJo™ software, from which data were tabulated for export to Microsoft Excel. […]
For flow cytometry and ELISA experiments, data from IK14004 and vehicle groups were analysed using parametric statistical procedures. […]

Lck [1] = conditions: in vitro; read-out: IC50, inhibition of Lck activity; cited from earlier work
IL-2 production = conditions: cited from earlier work
HPK1 (MAP4K1) = target: T1, HPK1 (MAP4K1) (Homo sapiens, UniProt Q92918); test: Kinase profiling, HPK1; type: biochemical
T1 construct: purchased Eurofins (France), KinaseProfiler service
T1 sequence (Q92918 whole entry): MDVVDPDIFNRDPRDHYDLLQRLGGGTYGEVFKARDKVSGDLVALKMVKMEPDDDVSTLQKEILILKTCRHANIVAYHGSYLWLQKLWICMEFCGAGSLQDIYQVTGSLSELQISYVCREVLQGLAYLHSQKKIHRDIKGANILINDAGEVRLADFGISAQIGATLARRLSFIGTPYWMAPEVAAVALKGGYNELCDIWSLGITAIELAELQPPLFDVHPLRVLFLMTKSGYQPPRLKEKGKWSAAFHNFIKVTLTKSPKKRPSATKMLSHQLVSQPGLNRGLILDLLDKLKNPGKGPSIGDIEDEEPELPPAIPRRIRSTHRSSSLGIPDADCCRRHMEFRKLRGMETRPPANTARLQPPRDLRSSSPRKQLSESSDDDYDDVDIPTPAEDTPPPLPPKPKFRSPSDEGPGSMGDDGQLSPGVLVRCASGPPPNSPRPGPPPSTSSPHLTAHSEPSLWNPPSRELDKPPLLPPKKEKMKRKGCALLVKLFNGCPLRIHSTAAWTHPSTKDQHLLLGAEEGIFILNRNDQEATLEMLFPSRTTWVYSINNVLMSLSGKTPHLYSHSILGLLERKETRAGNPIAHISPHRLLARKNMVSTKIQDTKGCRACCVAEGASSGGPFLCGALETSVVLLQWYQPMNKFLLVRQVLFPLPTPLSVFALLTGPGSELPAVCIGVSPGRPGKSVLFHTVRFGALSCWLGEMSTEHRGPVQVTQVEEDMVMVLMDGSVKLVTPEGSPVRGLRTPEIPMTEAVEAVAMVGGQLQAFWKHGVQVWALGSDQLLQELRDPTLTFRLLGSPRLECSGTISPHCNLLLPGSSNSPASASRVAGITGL
Experimental: (§1) Non-cell-based kinase profiling assays were performed by Eurofins (France). All compounds were prepared to 50 × final assay concentration in 100% DMSO. This working stock of the compound was added to assay wells as the first component in the reaction, followed by the remaining components as detailed in the specific assay protocols below. In the standard KinaseProfiler service, there was no pre-incubation step between the compound and the kinase prior to initiation of the reaction. Control wells contained all components of the reaction, except the compound of interest; however, DMSO (at a final concentration of 2%) was included in these wells to control for solvent effects. […] The reference inhibitors for each kinase are indicated in the methods for each kinase assay. […] Kinase activities were assessed in the presence of compounds at a concentration range of 0.003 -10 uM and the following kinases were tested: c-Src, Lck, Jak1, Jak2, Tyk2, CaMKIV and HPK1 (MAP4K1). Reactions between IK14004, substrates and MgAcetate/[γ^33P-ATP] mixes for each respective kinase were stopped by the addition of phosphoric acid and reaction mixtures spotted on P30 filtermats for scintillation according to the detailed methods available from Eurofins. The activities of Lck and c-Src were also assessed in the presence of the unconjugated components of IK14004, i.e., […] […]

Tyk2 = target: T2, Tyk2 (Homo sapiens, UniProt P29597); test: Kinase profiling, Tyk2; type: biochemical; conditions: non-cell-based, [γ-33P-ATP], 2% DMSO, no pre-incubation, Fig. 6i
T2 construct: purchased Eurofins (France), KinaseProfiler service
T2 sequence (P29597 whole entry): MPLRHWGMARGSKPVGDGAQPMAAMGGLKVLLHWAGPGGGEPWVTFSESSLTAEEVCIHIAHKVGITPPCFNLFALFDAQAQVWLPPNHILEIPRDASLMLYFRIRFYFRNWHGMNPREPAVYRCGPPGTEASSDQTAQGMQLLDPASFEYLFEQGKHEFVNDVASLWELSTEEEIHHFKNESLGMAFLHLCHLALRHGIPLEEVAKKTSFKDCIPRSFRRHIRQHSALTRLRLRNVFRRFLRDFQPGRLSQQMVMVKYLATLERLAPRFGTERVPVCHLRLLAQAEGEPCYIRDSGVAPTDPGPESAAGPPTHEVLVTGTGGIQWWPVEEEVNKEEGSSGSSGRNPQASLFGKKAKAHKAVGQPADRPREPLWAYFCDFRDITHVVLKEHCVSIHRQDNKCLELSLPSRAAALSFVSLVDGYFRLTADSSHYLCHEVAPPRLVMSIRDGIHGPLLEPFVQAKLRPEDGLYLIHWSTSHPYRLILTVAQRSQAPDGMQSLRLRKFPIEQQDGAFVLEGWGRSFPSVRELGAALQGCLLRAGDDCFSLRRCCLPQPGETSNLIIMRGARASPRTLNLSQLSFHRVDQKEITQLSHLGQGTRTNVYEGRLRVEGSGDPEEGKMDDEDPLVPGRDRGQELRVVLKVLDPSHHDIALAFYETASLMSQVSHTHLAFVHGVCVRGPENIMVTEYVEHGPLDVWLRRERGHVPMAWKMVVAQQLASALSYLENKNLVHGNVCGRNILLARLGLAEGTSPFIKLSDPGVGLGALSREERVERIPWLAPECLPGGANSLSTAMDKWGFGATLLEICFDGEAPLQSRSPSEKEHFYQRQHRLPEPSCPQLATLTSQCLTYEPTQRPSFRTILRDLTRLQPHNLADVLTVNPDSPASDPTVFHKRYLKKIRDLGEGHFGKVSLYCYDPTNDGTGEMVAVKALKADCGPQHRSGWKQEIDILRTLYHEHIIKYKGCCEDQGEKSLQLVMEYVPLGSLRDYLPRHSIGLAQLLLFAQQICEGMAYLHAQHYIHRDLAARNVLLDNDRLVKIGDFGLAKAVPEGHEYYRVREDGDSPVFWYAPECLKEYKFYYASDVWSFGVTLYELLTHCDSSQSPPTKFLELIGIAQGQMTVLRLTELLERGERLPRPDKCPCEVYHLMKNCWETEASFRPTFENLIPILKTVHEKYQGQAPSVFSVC
Experimental: as §1

JAK1 = target: T3, JAK1 (Homo sapiens, UniProt P23458); test: Kinase profiling, JAK1; type: biochemical
T3 construct: purchased Eurofins (France), KinaseProfiler service
T3 sequence (P23458 whole entry): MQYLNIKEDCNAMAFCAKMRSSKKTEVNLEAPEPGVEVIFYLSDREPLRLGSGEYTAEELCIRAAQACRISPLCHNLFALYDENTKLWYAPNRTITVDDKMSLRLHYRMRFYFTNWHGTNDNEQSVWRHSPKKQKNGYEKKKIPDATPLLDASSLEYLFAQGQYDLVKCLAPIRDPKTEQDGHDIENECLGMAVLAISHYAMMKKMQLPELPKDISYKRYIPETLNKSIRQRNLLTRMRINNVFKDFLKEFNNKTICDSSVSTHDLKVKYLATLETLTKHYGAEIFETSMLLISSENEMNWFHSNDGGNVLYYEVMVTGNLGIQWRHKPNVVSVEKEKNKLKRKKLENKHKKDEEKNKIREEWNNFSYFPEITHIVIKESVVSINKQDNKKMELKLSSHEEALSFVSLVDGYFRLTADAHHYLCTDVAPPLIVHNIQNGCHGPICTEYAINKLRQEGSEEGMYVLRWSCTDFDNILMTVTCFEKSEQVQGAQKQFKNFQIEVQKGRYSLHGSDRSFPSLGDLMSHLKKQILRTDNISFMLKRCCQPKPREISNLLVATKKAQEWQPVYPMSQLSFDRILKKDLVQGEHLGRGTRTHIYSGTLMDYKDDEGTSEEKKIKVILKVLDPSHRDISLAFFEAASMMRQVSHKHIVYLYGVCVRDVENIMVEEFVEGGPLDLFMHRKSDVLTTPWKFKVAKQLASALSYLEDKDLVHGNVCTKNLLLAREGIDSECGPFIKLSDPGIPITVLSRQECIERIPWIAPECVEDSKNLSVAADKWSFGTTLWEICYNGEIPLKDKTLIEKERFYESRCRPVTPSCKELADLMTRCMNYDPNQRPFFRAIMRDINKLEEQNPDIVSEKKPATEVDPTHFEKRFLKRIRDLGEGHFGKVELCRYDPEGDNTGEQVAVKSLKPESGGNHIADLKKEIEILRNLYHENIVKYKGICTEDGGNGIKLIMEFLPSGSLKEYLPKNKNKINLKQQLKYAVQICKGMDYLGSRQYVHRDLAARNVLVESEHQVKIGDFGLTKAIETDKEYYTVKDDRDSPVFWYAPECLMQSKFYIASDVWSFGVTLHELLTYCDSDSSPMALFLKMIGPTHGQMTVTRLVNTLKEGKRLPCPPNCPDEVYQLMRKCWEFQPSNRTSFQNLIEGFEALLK
Experimental: as §1

CaMKIV = target: T4, CaMKIV (Homo sapiens, UniProt Q16566); test: Kinase profiling, CaMKIV; type: biochemical
T4 construct: purchased Eurofins (France), KinaseProfiler service
Experimental: as §1

c-Src = test: Kinase profiling, c-Src; type: biochemical; conditions: Eurofins KinaseProfiler, [γ-33P-ATP] scintillation, 0.003-10 uM, 2% DMSO, no pre-incubation; Fig. 6d (IK14004 at concentrations below 3 µM), Fig. 6e
Experimental: as §1

Lck [2] = test: Kinase profiling, Lck; type: biochemical; conditions: Eurofins KinaseProfiler, [γ-33P-ATP] scintillation, 0.003-10 uM, 2% DMSO, no pre-incubation, Fig. 6c, 6e
Experimental: Non-cell-based kinase profiling assays were performed by Eurofins (France). All compounds were prepared to 50 × final assay concentration in 100% DMSO. This working stock of the compound was added to assay wells as the first component in the reaction, followed by the remaining components as detailed in the specific assay protocols below. In the standard KinaseProfiler service, there was no pre-incubation step between the compound and the kinase prior to initiation of the reaction. Control wells contained all components of the reaction, except the compound of interest; however, DMSO (at a final concentration of 2%) was included in these wells to control for solvent effects. […] The reference inhibitors for each kinase are indicated in the methods for each kinase assay. […] Kinase activities were assessed in the presence of compounds at a concentration range of 0.003 -10 uM and the following kinases were tested: c-Src, Lck, Jak1, Jak2, Tyk2, CaMKIV and HPK1 (MAP4K1). Reactions between IK14004, substrates and MgAcetate/[γ^33P-ATP] mixes for each respective kinase were stopped by the addition of phosphoric acid and reaction mixtures spotted on P30 filtermats for scintillation according to the detailed methods available from Eurofins. The activities of Lck and c-Src were also assessed in the presence of the unconjugated components of IK14004, i.e., […] (IK14000) and the dodecanoic acid moiety [(2)Adod]4 (IK00041) and a lipidic peptide containing substituted amino acid residues (IK14DE04).

CD40L expression = conditions: 48 h, in vitro; cited from earlier work
Text: An integrated understanding of how IL-2 and TCR co-stimulatory signals combine to control homeostasis in distinct tissue locations is lacking. The effects of IK14004 on cytokine production are shown in the Schematic (Fig. 7) together with putative effects on kinase-mediated signalling pathways involved in production of these cytokines. Maturation of DCs involves CD40L-CD40 interactions dependent upon T helper expression of CD40L[21],[22].

[3] = blank wells, baseline 0% kinase activity remaining

Molecule: COc1cc(-c2nn([C@H]3CC[C@H](N4CCN(C(C)=O)CC4)CC3)c3ncnc(N)c23)ccc1NC(=O)c1cc2ccccc2n1C [A-770041]
IL-2 in supernatant of CD3+ T cell cultures, A-770041 (CD3+ T cell cultures; 0.1 µM in 0.1% DMSO, anti-CD3/anti-CD28, 72 h, ELISA, 7 experimental replicates, paired t-test **P < 0.01, Fig. 6a): induced IL-2 production
IL-2 level relative to IK14004 (CD3+ T cell cultures; A-770041 0.1 µM versus IK14004 (0.16 uM), 72 h, Fig. 6a vs 1f): much greater level than in the presence of IK14004
IC50 (Lck [1]): 147 nM
IL-2 production, whole blood (IL-2 production; heparinised whole blood exposed to anti-CD3 plus PMA, ref Stachlewitz and colleagues [66]): inhibition of IL-2 production
IC50 (IL-2 production; read-out: IC50, inhibition of IL-2 production, in vitro): 80 nM

IC50 (HPK1 (MAP4K1); non-cell-based, [γ-33P-ATP], 2% DMSO, no pre-incubation, Fig. 6f): ~1000 nM
IC50 (Tyk2): 1000 nM
IC50 (JAK1; non-cell-based, [γ-33P-ATP], 2% DMSO, no pre-incubation, Fig. 6i): 3000 nM
IC50 (CaMKIV; non-cell-based, [γ-33P-ATP], 2% DMSO, no pre-incubation, Fig. 6h): 3000 nM
Molecule: CCCCCCCCCC[C@H](NC(=O)[C@H](CCCCCCCCCC)NC(=O)[C@H](CCCCCCCCCC)NC(=O)[C@H](CCCCCCCCCC)NC(=O)[C@H](CCCNC(=N)N)NC(=O)[C@H](Cc1ccc(O)cc1)NC(=O)[C@H](CC(C)C)NC(=O)[C@@H]1CCCN1C(=O)[C@H](CC(N)=O)NC(=O)[C@H](CCCCN)NC(=O)[C@H](C)NC(=O)[C@H](CCCCN)NC(=O)[C@H](CO)NC(=O)[C@@H](N)CCCNC(=N)N)C(N)=O [IK14004] (H-RSKAKNPLYR[Gly(decyl)][Gly(decyl)][Gly(decyl)][Gly(decyl)]-NH2)

Molecule: CN[C@@H]1C[C@H]2O[C@@](C)([C@@H]1OC)n1c3ccccc3c3c4c(c5c6ccccc6n2c5c31)C(=O)NC4 [staurosporine, reference compound]
HPK1 activity, reference inhibitor (HPK1 (MAP4K1); [3]): abolished kinase activity
JAK1 activity, reference inhibitor (JAK1; [3]): abolished kinase activity
CaMKIV activity, reference inhibitor (CaMKIV; [3]): abolished kinase activity

c-Src activity (c-Src): abolished the effects of IK14004
Lck activity (Lck [2]): abolished the effects of IK14004
Molecule: DSEAENPLYD [IK14DE04]

Molecule: [(2)Adod]4 [IK00041]
Lck activity (Lck [2]): neither IK14000 nor IK00041 had an effect

B1: daclizumab: a humanised anti-CD25 mAb (antibody, chains of the INN, looked up, V domains shown)
VH: QVQLVQSGAEVKKPGSSVKVSCKASGYTFTSYRMHWVRQAPGQGLEWIGYINPSTGYTEYNQKFKDKATITADESTNTAYMELSSLRSEDTAVYYCARGGGVFDYWGQGTLVTVSS
VL: DIQMTQSPSTLSASVGDRVTITCSASSSISYMHWYQQKPGKAPKLLIYTTSNLASGVPARFSGSGSGTEFTLTISSLQPDDFATYYCHQRSTYPLTFGQGTKVEVK
CD40L expression at later time points (CD40L expression): inhibitable
